Results published in PubChem BioAssay (NCI).
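The compound was tested at five concentrations on cells cultured in 96-well plates, with a 48-hour exposure period. The concentration for 50% growth inhibition is given as GI50. Definition used: TGI = concentration required for complete inhibition of growth.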

Key:
Test in all cases: DTP human tumour cell line panel, 48 h
[1] = test system: OVCAR-4 ovarian
[2] = test system: SK-MEL-2 melanoma
[3] = test system: HT29 colon
[4] = test system: SK-OV-3 ovarian
[5] = test system: HOP-62 NSCLC
[6] = test system: CAKI-1 renal
[7] = test system: UACC-257 melanoma
[8] = test system: EKVX NSCLC
[9] = test system: SF-539 CNS
[10] = test system: M14 melanoma
[11] = test system: MDA-MB-435
[12] = test system: T-47D breast
[13] = test system: SF-268 CNS
[14] = test system: KM12 colon
[15] = test system: SNB-19 CNS
[16] = test system: HCT-15 colon
[17] = test system: HS 578T breast
[18] = test system: HCC-2998 colon
[19] = test system: IGROV1 ovarian
[20] = test system: ACHN renal
[21] = test system: NCI-H522 lung
[22] = test system: U251 CNS
[23] = test system: NCI-H460 lung
[24] = test system: OVCAR-5 ovarian
[25] = test system: HCT-116 colon
[26] = test system: TK-10 renal
[27] = test system: OVCAR-8 ovarian
[28] = test system: SW-620 colon
[29] = test system: SNB-75 CNS
[30] = test system: A549 NSCLC
[31] = test system: RXF 393 renal
[32] = test system: HL-60(TB) leukemia
[33] = test system: 786-0 renal
[34] = test system: A498 renal
[35] = test system: NCI/ADR-RES ovarian
[36] = test system: SK-MEL-5 melanoma
[37] = test system: SK-MEL-28 melanoma
[38] = test system: COLO 205 colon
[39] = test system: SF-295 CNS
[40] = test system: K-562 leukemia
[41] = test system: MOLT-4 leukemia
[42] = test system: MDA-MB-231 breast
[43] = test system: UO-31 renal
[44] = test system: DU-145 prostate
[45] = test system: PC-3 prostate
[46] = test system: HOP-92 NSCLC
[47] = test system: NCI-H226 lung
[48] = test system: BT-549 breast
[49] = test system: LOX IMVI melanoma
[50] = test system: MCF7 breast
[51] = test system: UACC-62 melanoma
[52] = test system: SR leukemia
[53] = test system: NCI-H23 lung
[54] = test system: CCRF-CEM leukemia
[55] = test system: SN12C renal
[56] = test system: MALME-3M melanoma
[57] = test system: RPMI-8226 leukemia

SMILES: Nc1nc(N)c2c(n1)NC(c1ccc(Cl)cc1)CC(c1ccc(Nc3nc(NCCO)nc(Nc4ccc(Cl)cc4)n3)cc1)=N2 (stereo not given)
- GI50 [1]: 1.96 µM
- TGI [1]: 5.04 µM
- GI50 [2]: 1.45 µM
- TGI [2]: 2.83 µM
- GI50 [3]: 1.7 µM
- TGI [3]: 3.68 µM
- GI50 [4]: 14.8 µM
- TGI [4]: 29.3 µM
- GI50 [5]: 2.83 µM
- TGI [5]: 10.9 µM
- GI50 [6]: 5.36 µM
- TGI [6]: 28.2 µM
- GI50 [7]: 1.91 µM
- TGI [7]: 3.74 µM
- GI50 [8]: 2.01 µM
- TGI [8]: 6.88 µM
- GI50 [9]: 1.68 µM
- TGI [9]: 3.32 µM
- GI50 [10]: 1.9 µM
- TGI [10]: 4.39 µM
- GI50 [11]: 1.63 µM
- TGI [11]: 3.18 µM
- GI50 [12]: 1.71 µM
- TGI [12]: 6.51 µM
- GI50 [13]: 4.14 µM
- TGI [13]: 26.1 µM
- GI50 [14]: 3.18 µM
- TGI [14]: 10.3 µM
- GI50 [15]: 1.99 µM
- TGI [15]: 5.81 µM
- GI50 [16]: 1.29 µM
- TGI [16]: 2.8 µM
- GI50 [17]: 2.22 µM
- TGI [17]: 5.01 µM
- GI50 [18]: 1.44 µM
- TGI [18]: 2.78 µM
- GI50 [19]: 1.71 µM
- TGI [19]: 3.58 µM
- GI50 [20]: 4.69 µM
- TGI [20]: > 100 µM
- GI50 [21]: 1.56 µM
- TGI [21]: 3.16 µM
- GI50 [22]: 1.47 µM
- TGI [22]: 2.92 µM
- GI50 [23]: 1.72 µM
- TGI [23]: 3.32 µM
- GI50 [24]: 4.48 µM
- TGI [24]: 19.8 µM
- GI50 [25]: 1.4 µM
- TGI [25]: 2.69 µM
- GI50 [26]: 10.6 µM
- TGI [26]: 25.3 µM
- GI50 [27]: 1.57 µM
- TGI [27]: 3.27 µM
- GI50 [28]: 1.62 µM
- TGI [28]: 3.3 µM
- GI50 [29]: 1.59 µM
- TGI [29]: 3.97 µM
- GI50 [30]: 4.12 µM
- TGI [30]: > 100 µM
- GI50 [31]: 1.54 µM
- TGI [31]: 2.97 µM
- GI50 [32]: 1.15 µM
- TGI [32]: 3.94 µM
- GI50 [33]: 1.55 µM
- TGI [33]: 3.04 µM
- GI50 [34]: 5.9 µM
- TGI [34]: 19.8 µM
- GI50 [35]: 4.24 µM
- TGI [35]: > 100 µM
- GI50 [36]: 1.48 µM
- TGI [36]: 2.8 µM
- GI50 [37]: 1.73 µM
- TGI [37]: 3.11 µM
- GI50 [38]: 1.51 µM
- TGI [38]: 3.59 µM
- GI50 [39]: 1.73 µM
- TGI [39]: 3.67 µM
- GI50 [40]: 0.713 µM
- TGI [40]: 3.2 µM
- GI50 [41]: 0.792 µM
- TGI [41]: 3.92 µM
- GI50 [42]: 1.75 µM
- TGI [42]: 3.92 µM
- GI50 [43]: 3.1 µM
- TGI [43]: 15.3 µM
- GI50 [44]: 2.22 µM
- TGI [44]: 5.81 µM
- GI50 [45]: 1.93 µM
- TGI [45]: 7.55 µM
- GI50 [46]: 1.29 µM
- TGI [46]: 3.12 µM
- GI50 [47]: 6.47 µM
- TGI [47]: 29.8 µM
- GI50 [48]: 2.25 µM
- TGI [48]: 5.89 µM
- GI50 [49]: 1.45 µM
- TGI [49]: 2.86 µM
- GI50 [50]: 1.2 µM
- TGI [50]: 2.57 µM
- GI50 [51]: 2.03 µM
- TGI [51]: 4.28 µM

SMILES: Oc1ccc(CSc2nnc(-c3ccc(Cl)cc3)o2)c2cccnc12
- GI50 [1]: 3.07 µM
- TGI [1]: > 100 µM
- GI50 [3]: > 100 µM
- TGI [3]: > 100 µM
- GI50 [4]: 3.15 µM
- TGI [4]: > 100 µM
- GI50 [5]: 2.92 µM
- TGI [5]: > 100 µM
- GI50 [52]: 0.777 µM
- TGI [52]: > 100 µM
- GI50 [6]: 2.91 µM
- TGI [6]: > 100 µM
- GI50 [7]: 3.19 µM
- TGI [7]: > 100 µM
- GI50 [8]: 2.76 µM
- TGI [8]: > 100 µM
- GI50 [11]: 2.96 µM
- TGI [11]: > 100 µM
- GI50 [12]: 2.54 µM
- TGI [12]: > 100 µM
- GI50 [13]: 1.56 µM
- TGI [13]: > 100 µM
- GI50 [53]: 2.42 µM
- TGI [53]: > 100 µM
- GI50 [14]: 1.96 µM
- TGI [14]: > 100 µM
- GI50 [15]: 1.52 µM
- TGI [15]: > 100 µM
- GI50 [54]: 1 µM
- TGI [54]: > 100 µM
- GI50 [16]: 0.698 µM
- TGI [16]: > 100 µM
- GI50 [17]: 1.62 µM
- TGI [17]: 64.7 µM
- GI50 [18]: 2.29 µM
- TGI [18]: > 100 µM
- GI50 [19]: 2.8 µM
- TGI [19]: > 100 µM
- GI50 [21]: 2.92 µM
- TGI [21]: > 100 µM
- GI50 [22]: 1.11 µM
- TGI [22]: > 100 µM
- GI50 [25]: 1.76 µM
- TGI [25]: > 100 µM
- GI50 [27]: 2.32 µM
- TGI [27]: > 100 µM
- GI50 [55]: 2.54 µM
- TGI [55]: > 100 µM
- GI50 [28]: 2.91 µM
- TGI [28]: > 100 µM
- GI50 [29]: 1.52 µM
- TGI [29]: 7.81 µM
- GI50 [30]: 2.78 µM
- TGI [30]: > 100 µM
- GI50 [31]: 2.37 µM
- TGI [31]: > 100 µM
- GI50 [32]: 1.91 µM
- TGI [32]: 9.57 µM
- GI50 [56]: 2.87 µM
- TGI [56]: > 100 µM
- GI50 [33]: 3.22 µM
- TGI [33]: > 100 µM
- GI50 [36]: 1.89 µM
- TGI [36]: 5.16 µM
- GI50 [37]: 2.38 µM
- TGI [37]: > 100 µM
- GI50 [38]: > 100 µM
- TGI [38]: > 100 µM
- GI50 [39]: 2.34 µM
- TGI [39]: > 100 µM
- GI50 [40]: 2.17 µM
- TGI [40]: > 100 µM
- GI50 [41]: 2.37 µM
- TGI [41]: > 100 µM
- GI50 [42]: 3.18 µM
- TGI [42]: > 100 µM
- GI50 [44]: 3.67 µM
- TGI [44]: > 100 µM
- GI50 [45]: 1.49 µM
- TGI [45]: > 100 µM
- GI50 [46]: 1.14 µM
- TGI [46]: 6.72 µM
- GI50 [48]: 2.47 µM
- TGI [48]: > 100 µM
- GI50 [57]: 1.22 µM
- TGI [57]: > 100 µM
- GI50 [50]: 2.66 µM
- TGI [50]: > 100 µM
